Data taken from paper PMC10604720, “Unraveling the Mechanism of Epichaperome Modulation by Zelavespib: Biochemical Insights on Target Occupancy and Extended Residence Time at the Site of Action” (Biomedicines, 2023).

Key:
[1] = set-up: method as in PMID 31668946; conditions: whole-body PET imaging, mice; cited from earlier work
[2] = Biodistribution / PET pharmacokinetics of [124I]-zelavespib in MDA-MB-468 tumor-bearing mice (data of ref 32, refitted to exponential decay); assay type: in vivo, mouse
Description: Iodine-124 is a ‘non-residualizing’ isotope (i.e., free iodine-124 washes out from cells), and therefore, data derived from positron emission tomography imaging of MDA-MB-468-bearing mice that were administered a tracer amount of [^124I]-PU-AD can be used to determine real-time zelavespib concentrations delivered to tumors. Because positron emission tomography provides information on radioactivity and not molar concentrations, radioactivity data from Pillarsetty et al. were transformed into tumor concentrations to calculate the time-dependent zelavespib concentrations in tumors for an administered dose of 50 mg/kg. The drug concentration (in μM) in the tumor water space, [Drugtumor], at the time t post-administration is therefore: [Drugtumor]t=Drugdose·[Atumor]t/100%·1/W·1×10^6/MW µM where Drugdose is the administered drug dose (in mg), [Atumor]t is the activity concentration (in % injected dose per milliliter, %ID/mL) of the surrogate radiotracer, W is the water space of the tissue (in mL/g), MW is the molecular weight of the drug (i.e., zelavespib), and the factor 1 × 10^6 converts the concentration to μM. For the drug zelavespib and the surrogate radiotracer […] co-injected in a ratio of ~1 to 10,000, the drug itself is essentially the only significant form of the drug–surrogate combination in the tumor. Thus, for a co-administered dose of zelavespib (zelavespibdose in mg) and a tracer amount of [^124I]-PU-AD, the drug concentration in the tumor water space (using an average water space, W = 0.8 mL/g, and the molecular weight MW = 512) is: [Zelavespibtumor]t=Zelavespibdose · [Atumor]t/100%·2.44×10^3 µM
To study the zelavespib–epichaperome interaction in vivo, we selected, for simplicity, an epichaperome-positive tumor model (e.g., subcutaneously xenografted MDA-MB-468 tumors in mice). Using whole-body PET imaging after the injection of ^124I-labeled zelavespib, Pillarsetty et al. reported drug presence in MDA-MB-468 tumors up to 120 h post-single dose administration (~T1/2 = 60 h). Conversely, zelavespib was no longer observed in non-disease, non-metabolizing tissues after ~8 h, clearing rapidly from plasma, paralleled by a similar rapid clearance from normal tissues (i.e., chaperone-positive but epichaperome-negative). In these tumors, a clear relationship between tumor retention, pharmacodynamic effects, and anti-tumor activity was observed, supporting the notion that zelavespib was in residence with its target over the time it resided in these tumors.
These values are very much in agreement with those reported for zelavespib in human patients. […] Contrasting plasma and normal tissues and organs, the distribution of zelavespib in tumors was best fitted using a bi-exponential model. […] The first phase thus reflects the clearance of systemic agent, while the second is attributable to specific tumor retention.
Figure 1 Biodistribution of zelavespib in MDA-MB-468 tumor-bearing mice. (a) Biodistribution of [^124I]-Zelavespib in MDA-MB-468 tumors, organs, tissues, and plasma as per ref. [32]. Data are presented as means ± s.d., five mice per time point. Curves for blood, lung, heart, muscle, bone, and brain were fitted using a one-phase decay equation, and kinetics of zelavespib clearance were determined. Tumor curve was fitted to a two-phase exponential decay. k, kfast, and kslow are the rate constants. Half-life (T1/2) is computed as ln(2)/k. […] (b) Illustrative schematic showing the distinct binding kinetics of zelavespib to epichaperomes (slow off-rate) and to chaperone assemblies (fast off-rate). The tumor pharmacokinetics profile recorded in the Phase 2 interval may represent a direct reflection of the in vivo kinetics of target–drug unbinding. koff, kinetic rate constant for dissociation of an epichaperome-zelavespib assembly. Rt, retention time. […]

[3] = MDA-MB-468 tumor-bearing mice, one-phase exponential decay fit of data of ref 32
[4] = MDA-MB-468 tumor, bi-exponential fit, Phase 1: 0 to 8 h, data of ref 32
[5] = MDA-MB-468 tumor, bi-exponential fit, slow terminal clearance phase, data of ref 32
[6] = one-phase decay fit of data of ref 32

CC(C)NCCCn1c(Sc2cc3c(cc2[124I])OCO3)nc2c(N)ncnc21 [[^124I]-zelavespib]
T1/2 in MDA-MB-468 tumors [1]: ~60 h | drug presence in MDA-MB-468 tumors, time post-single dose administration [1]: up to 120 h | half-life (T1/2), bone [2, 3]: 2.844 h | half-life (T1/2), brain [2, 3]: 2.655 h | half-life (T1/2), heart [2, 3]: 3.102 h | half-life (T1/2), lung [2, 3]: 3.367 h | half-life (T1/2), muscle [2, 3]: 5.034 h | half-life (T1/2), plasma/blood [2, 3]: 4.380 h | tumor Phase 1 T1/2 [2, 4]: 2.876 h | tumor Phase 1 rate constant k (kfast) [2, 4]: 0.2410 h⁻¹ | tumor Phase 2 T1/2 [2, 5]: 46.80 h | tumor Phase 2 rate constant k (kslow) [2, 5]: 0.0148 h⁻¹ | clearance rate constant k, blood [2, 6]: 0.1583 h⁻¹ | clearance rate constant k, bone [2, 6]: 0.2437 h⁻¹ | clearance rate constant k, brain [2, 6]: 0.2611 h⁻¹ | clearance rate constant k, heart [2, 6]: 0.2234 h⁻¹ | clearance rate constant k, lung [2, 6]: 0.2059 h⁻¹ | clearance rate constant k, muscle [2, 6]: 0.1377 h⁻¹
